Test systems include HT29 colon; SK-OV-3 ovarian; SN12C renal; KM12 colon; MDA-MB-231 breast; OVCAR-3 ovarian; HCT-15 colon; NCI-H23 lung; EKVX NSCLC; HL-60(TB) leukemia.
Holding throughout (assay): DTP human tumour cell line panel, 48 h

The values that follow come from PubChem BioAssay (NCI).

Several values for one entry are separate records, joined by “and”; a condition that tells them apart may be missing. Equal entries are not always repeated.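 Step 1: Grow cells in 96-well plates. Step 2: Expose to compound for 48 hours at 5 concentrations. Step 3: Interpolate endpoints linearly; if unreached, use highest concentration. GI50: concentration for 50% inhibition of growth. TGI: concentration producing complete growth inhibition.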

`O=C(O)C(O)c1ccc(F)cc1` (configuration not stated): the TGI in the assay on HT29 colon, with SK-OV-3 ovarian, in the assay on SN12C renal, in the assay on KM12 colon, in the assay on MDA-MB-231 breast and in the assay on OVCAR-3 ovarian was more than 100 µM in each case. In addition, the TGI in the assay with HCT-15 colon, in the assay with NCI-H23 lung and in the assay with EKVX NSCLC was more than 100 µM throughout.

With `Cc1nc2cc(Nc3nc(Nc4ccc(F)cc4)nc(-c4ccc(Cl)cc4)n3)ccc2n1Cc1ccccc1`, the GI50 was 4.63 µM in the assay on HT29 colon; 10.9 µM with SK-OV-3 ovarian; 46.4 µM in the assay on SN12C renal; 4.32 µM with KM12 colon; 9.97 µM in the assay with MDA-MB-231 breast; 7.91 µM in the assay with OVCAR-3 ovarian. The GI50 was 3.77 µM with HCT-15 colon, 3.28 µM in the assay on HL-60(TB) leukemia and 14.7 µM in the assay with NCI-H23 lung. Besides, the TGI in the assay on HT29 colon, with SK-OV-3 ovarian, in the assay on SN12C renal, in the assay on KM12 colon, with MDA-MB-231 breast and with OVCAR-3 ovarian was more than 100 µM in each case. The TGI in the assay with HCT-15 colon, in the assay on HL-60(TB) leukemia and with NCI-H23 lung was more than 100 µM in each case.

Regarding `COc1cccc(C2CC(=O)Nc3cc4c(cc32)CCC4)c1OC` (configuration not stated), the GI50 is 3.26 µM in the assay on HT29 colon; 3.73 µM in the assay with SK-OV-3 ovarian; 5.4 µM in the assay with SN12C renal; 4.21 µM in the assay on KM12 colon; 6.17 µM in the assay on MDA-MB-231 breast; 2.37 µM with OVCAR-3 ovarian. For the same molecule, the GI50 in the assay with HCT-15 colon was 3.63 µM; in the assay with HL-60(TB) leukemia it was 2.73 µM; in the assay with NCI-H23 lung, 3.4 µM. The TGI in the assay with HT29 colon was 12.6 µM; with SK-OV-3 ovarian, 20 µM; in the assay on SN12C renal, 34.8 µM; with KM12 colon it was 18.6 µM; in the assay with MDA-MB-231 breast, 39.5 µM; in the assay on OVCAR-3 ovarian, 5.9 µM. Moreover, the values for the TGI in the assay on HCT-15 colon, in the assay on HL-60(TB) leukemia and in the assay on NCI-H23 lung were 25.8 µM, 7.88 µM and 26.1 µM, respectively.

On to `Cc1cc(S(N)(=O)=O)c(S/C(=N\NS(=O)(=O)c2ccccc2)c2ccc(Cl)c(Cl)c2)cc1Cl`, for which the GI50 is more than 100 µM in the assay with SK-OV-3 ovarian; 34.1 µM in the assay on SN12C renal; 42 µM with KM12 colon; 28.7 µM in the assay with MDA-MB-231 breast; 25.8 µM in the assay on OVCAR-3 ovarian; 46.1 µM with HCT-15 colon. The values for the GI50 with HL-60(TB) leukemia, with NCI-H23 lung and with EKVX NSCLC were 21.7 µM, 20.3 µM and 48.1 µM, respectively. Also, the TGI in the assay with SK-OV-3 ovarian is more than 100 µM; in the assay on SN12C renal, more than 100 µM; in the assay on KM12 colon it was more than 100 µM; with MDA-MB-231 breast, more than 100 µM; with OVCAR-3 ovarian, 72.7 µM; with HCT-15 colon, more than 100 µM. Also, the figures for the TGI in the assay on HL-60(TB) leukemia, in the assay with NCI-H23 lung and with EKVX NSCLC were 53.4 µM, 49.9 µM and more than 100 µM, respectively.

Take `C=C1c2ccccc2N(S(=O)(=O)c2ccc(C)cc2)C12CCCCC2`: the TGI in the assay with HT29 colon, with SK-OV-3 ovarian, with SN12C renal, in the assay on KM12 colon, in the assay on OVCAR-3 ovarian and with HCT-15 colon was more than 100 µM throughout. Moreover, the TGI in the assay on HL-60(TB) leukemia, in the assay on NCI-H23 lung and in the assay on EKVX NSCLC was more than 100 µM in each case.

`COc1cc(-c2nn3c(=O)n(-c4ccc(Cl)cc4)c(=O)nc3s2)cc(OC)c1OC`: the GI50 in the assay on HT29 colon is more than 50 µM; in the assay on SK-OV-3 ovarian, 33.5 µM; in the assay on SN12C renal, more than 50 µM; with KM12 colon, more than 50 µM; with HCT-15 colon, more than 50 µM; with HL-60(TB) leukemia, more than 100 µM. Further, the GI50 with NCI-H23 lung and with EKVX NSCLC was more than 50 µM each time. Further, the total growth inhibition concentration (TGI) with HT29 colon, with SK-OV-3 ovarian, in the assay on SN12C renal, with KM12 colon, in the assay with OVCAR-3 ovarian and in the assay with HCT-15 colon was more than 100 µM throughout. Further, the TGI in the assay with HL-60(TB) leukemia, in the assay on NCI-H23 lung and with EKVX NSCLC was more than 100 µM throughout.

In the case of `C(/C=C/N1CCCC1)=C\c1nc(N2CCCC2)c2ccccc2n1`, the TGI in the assay on HT29 colon was 39.4 µM; in the assay with SK-OV-3 ovarian it was 36.3 µM; in the assay with SN12C renal, 29 µM; in the assay on KM12 colon it was more than 100 µM; in the assay with OVCAR-3 ovarian it was 29.7 µM; with HCT-15 colon, 32.5 µM. The TGI with HL-60(TB) leukemia amounted to 61.3 µM; with NCI-H23 lung, 32.9 µM; with EKVX NSCLC it was 37.9 µM.

As for `COc1cc2c(c(OC)c1OC)-c1ccc(SC)c(=O)cc1[C@@H](NC(=O)c1ccc(F)cc1)CC2`, the GI50 with HT29 colon was less than 0.01 µM; in the assay with SK-OV-3 ovarian, less than 0.01 µM; in the assay with SN12C renal, less than 0.01 µM; in the assay on KM12 colon, less than 0.01 µM; with OVCAR-3 ovarian, less than 0.01 µM; in the assay with HCT-15 colon it was 0.043 µM. Besides, the GI50 in the assay with NCI-H23 lung and with EKVX NSCLC was less than 0.01 µM throughout. Also, the TGI in the assay with HT29 colon is 0.0891 µM and < 0.01 µM; with SK-OV-3 ovarian, 0.072 µM and < 0.01 µM; in the assay on SN12C renal it was 46.8 µM; with KM12 colon, 0.0871 µM and 0.0284 µM; in the assay with OVCAR-3 ovarian, 0.0378 µM and < 0.01 µM; with HL-60(TB) leukemia, 12.7 µM. Besides, the TGI was less than 0.01 µM in the assay with NCI-H23 lung and more than 100 µM with EKVX NSCLC.

With `CCOC(=O)/N=c1\ssc(Cl)c1Cl`, the GI50 in the assay on HT29 colon is 4.43 µM; with SK-OV-3 ovarian, 20.6 µM; in the assay on SN12C renal, 6.7 µM; in the assay on KM12 colon, 16.7 µM; in the assay on MDA-MB-231 breast, 6.95 µM; in the assay on OVCAR-3 ovarian, 6.53 µM. Moreover, the GI50 with HL-60(TB) leukemia was 6.41 µM; with NCI-H23 lung it was 3.25 µM; in the assay with EKVX NSCLC, 19.9 µM. Further, the concentration for total growth inhibition (TGI) was more than 100 µM with HT29 colon; 45.6 µM in the assay on SK-OV-3 ovarian; 25.8 µM in the assay on SN12C renal; 35.9 µM in the assay on KM12 colon; 28.7 µM in the assay on MDA-MB-231 breast; 20.9 µM in the assay with OVCAR-3 ovarian. Moreover, the TGI in the assay on HL-60(TB) leukemia is more than 100 µM; in the assay with NCI-H23 lung it was 11.3 µM; in the assay with EKVX NSCLC it was 42.7 µM.

As a reminder, the TGI is the concentration giving total growth inhibition. Read a low TGI as more potent growth arrest. For orientation: GI50 means the concentration at which growth is held to half of that of the control.
